Experimental data as given in patent publication US9890400B2, “Method of production of 2,4-dihydroxybutyric acid” (ADISSEO FRANCE S.A.S., priority 2012, dated 2018).
Numbering of substitutions follows the chain as printed.

Tests used:
[1] = system: malic enzyme; settings: Rognstad & Katz, 1979; cited from earlier work
[2] = target: T1, Metallosphaera sedula succinic semialdehyde reductase (Ms-SSR), wild type, SEQ ID No. 16 (Metallosphaera sedula, UniProt A4YGN0); test: Malate semialdehyde reductase activity; assay type: biochemical; settings: NADH or NADPH, pH 7.5, 30° C., average of at least two independent experiments
T1 construct: full length 360 aa
T1 sequence (A4YGN0 1-360): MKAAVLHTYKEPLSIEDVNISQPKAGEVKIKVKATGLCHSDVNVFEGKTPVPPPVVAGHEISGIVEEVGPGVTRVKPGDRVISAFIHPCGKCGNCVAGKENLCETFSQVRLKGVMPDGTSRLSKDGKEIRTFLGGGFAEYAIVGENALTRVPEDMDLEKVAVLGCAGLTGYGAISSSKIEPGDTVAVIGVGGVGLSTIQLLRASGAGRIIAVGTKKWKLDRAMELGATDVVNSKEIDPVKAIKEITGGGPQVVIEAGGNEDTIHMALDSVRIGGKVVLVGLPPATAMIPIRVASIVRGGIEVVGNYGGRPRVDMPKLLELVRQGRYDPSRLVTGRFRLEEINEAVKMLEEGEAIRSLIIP
Procedure: To identify a suitable 2,4 DHB dehydrogenase, beta-hydroxyacid dehydrogenases from different biological sources were tested for their ability to reduce malate semialdehyde. […] The genes YPR1, 4hbdh, yqhD, and Ms-SSR were amplified using primers listed in Table 5 and cloned into vector pET28 (restriction enzymes see Table 5) yielding plasmids pET28-Sce-YPR1, pET28-Pgi-4-hbdh, pET28-Eco-yqhd and pET28-Mse-SSR, respectively. The proteins were expressed and purified as described in Example 1.
(§1) Test for Malate Semialdehyde Reductase Activity: (L)-Malate semialdehyde+NAD(P)H→(L)-2,4-dihydroxybutyric acid+NAD(P) Reaction scheme:
(§2) The assay mixture contained 200 mM Hepes (pH 7.5), 50 mM KCl, 5 mM MgCl2, 0.24 mM NADH or NADPH, and appropriate amounts of purified enzyme or cell extract. Reactions were started by adding 10 mM (L)-malate semialdehyde (malate semialdehyde was prepared freshly for each test, see Example 3). Enzymatic assays were carried out at 30° C. in 96-well flat bottomed microtiter plates in a final volume of 250 μL. The reactions were followed by the characteristic absorption of NAD(P)H at 340 nm (εNADPH=6.22 mM^−1 cm^−1) in a microplate reader (BioRad 680XR).

[3] = target: T2, Metallosphaera sedula succinic semialdehyde reductase (Ms-SSR) mutant H39R, SEQ ID No. 32 (Metallosphaera sedula, UniProt A4YGN0, H39R); test: Malate semialdehyde reductase activity; assay type: biochemical; settings: NADH or NADPH, pH 7.5, 30° C., average of at least two independent experiments
T2 sequence (A4YGN0 1-360 H39R): T1 sequence (A4YGN0 1-360) with H39R
Procedure: as §1, §2
(§3) Site-directed mutagenesis was carried out using the oligonucleotide pairs listed in Table 6 and the pET28-Mse-SSR plasmid as the template. Point mutations to change the amino acid sequences were introduced by PCR (Phusion 1U, HF buffer 20% (v/v), dNTPs 2.5 mM, direct and reverse primers 1 μM each, template plasmid 200 ng, water). When possible, plasmids created by PCR contained new restriction sites (introduced using silent mutations) in addition to the functional mutation to facilitate identification of mutated clones. The PCR products were digested by DpnI at 37° C. for 2×2 h to remove template DNA, and transformed into NEB DH5-α competent E. coli cells (NEB). The mutated plasmids were identified by restriction site analysis and verified to carry the desired mutations by DNA sequencing.

[4] = target: T3, Metallosphaera sedula succinic semialdehyde reductase (Ms-SSR) double mutant H39R N43H, SEQ ID No. 36 (Metallosphaera sedula, UniProt A4YGN0, H39R/N43H); test: Malate semialdehyde reductase activity; assay type: biochemical; settings: NADH or NADPH, pH 7.5, 30° C., average of at least two independent experiments
T3 sequence (A4YGN0 1-360 H39R/N43H): T1 sequence (A4YGN0 1-360) with H39R, N43H
Procedure: as §1, §2, §3

[5] = target: T4, Metallosphaera sedula succinic semialdehyde reductase (Ms-SSR) mutant N43H, SEQ ID No. 34 (Metallosphaera sedula, UniProt A4YGN0, N43H); test: Malate semialdehyde reductase activity; assay type: biochemical; settings: NADH or NADPH, pH 7.5, 30° C., average of at least two independent experiments
T4 sequence (A4YGN0 1-360 N43H): T1 sequence (A4YGN0 1-360) with N43H
Procedure: as §1, §2, §3

O=C(O)[C@@H](O)CCO [2,4-DHB, 2,4-dihydroxybutyric acid]
inhibition of malic enzyme [1]: competitive inhibitor

O=CC[C@H](O)C(=O)O [malate semialdehyde, (L)-malate semialdehyde]
Maximum activity [2]: 4.9 μmol/(min * mgprot)
Maximum activity [3]: 1.7 μmol/(min * mgprot)
Maximum activity [4]: 4.7 μmol/(min * mgprot)
Maximum activity [5]: 4.3 μmol/(min * mgprot)
